Literature values in article PMC12307812 (Nature Communications, 2025).

System: TMPRSS2
Parameters: method as in earlier work
Conditions: top 50 compounds by AUC, Figure 2 source data; cited from earlier work

| SMILES | max response (%) |
| --- | --- |
| CCCCc1cc2ccccc2c(OCCN(C)C)n1 [NCGC00016618-04] | -11.3359% |
| Cl.NCC1CCC(C(=O)Oc2ccc(CCC(=O)O)cc2)CC1 (stereo not drawn) [NCGC00164584-03] | -89.9618% |
| CCOC(=O)c1ccc(OC(=O)CCCCCN=C(N)N)cc1.CS(=O)(=O)O [NCGC00025297-04] | -83.626% |
| CC(N)C12CC3CC(CC(C3)C1)C2.Cl (stereo not drawn) [NCGC00159491-04] | -13.9313% |
| C=C1CC[C@H](O)C/C1=C\C=C1/CCC[C@]2(C)[C@@H]([C@H](C)/C=C/[C@H](C)C(C)C)CC[C@@H]12 [NCGC00166307-05] | -20.0382% |
| CCCCCCCCCCCCCCCC[n+]1ccccc1.[Br-] [NCGC00091023-06] | -21.1069% |
| COc1ccc(CN2CCNCC2)c(OC)c1OC [NCGC00016697-04] | -13.9313% |
| CC12CCC(CC1=O)C2(C)C (stereo not drawn) [NCGC00090730-03] | -1.87% |
| N=C(N)c1ccc(/C=C/c2ccc(C(=N)N)cc2O)cc1 [NCGC00166289-02] | -82.5214% |
| C=CC[C@@H]1/C=C(\C)C[C@H](C)C[C@H](OC)[C@H]2O[C@@](O)(C(=O)C(=O)N3CCCC[C@H]3C(=O)O[C@H](/C(C)=C/[C@@H]3CC[C@@H](O)[C@H](OC)C3)[C@H](C)[C@@H](O)CC1=O)[C@H](C)C[C@@H]2OC [NCGC00163470-27] | -28.9699% |
| Cc1cc(C)cc(OCC2CNC(=O)O2)c1 (stereo not drawn) [NCGC00095116-05] | -5.458% |
| Nc1ncnc2nc[nH]c12 [NCGC00094856-05] | -3.511% |
| CC(CCc1ccccc1)NC(C)C(O)c1ccc(O)cc1 (stereo not drawn) [NCGC00015716-09] | -20.1145% |
| O=C1N=C([O-])CN1/N=C/c1ccc(-c2ccc([N+](=O)[O-])cc2)o1.[Na+] [NCGC00024622-05] | -21.3359% |
| CC(C(=O)O)c1ccc(C(=O)c2cccs2)cc1 (stereo not drawn) [NCGC00094916-06] | -15.5344% |
| Cl.NCCNC(=O)c1ccc(Cl)cn1 [NCGC00167737-02] | -9.8855% |
| COc1cc(C)c(Cc2cnc(N)nc2N)cc1OC [NCGC00167523-03] | -8.206% |
| O=[N+]([O-])C(Br)(CO)CO [NCGC00164057-03] | -6.336% |
| CN(C)C(=O)COC(=O)Cc1ccc(OC(=O)c2ccc(N=C(N)N)cc2)cc1.CS(=O)(=O)O [NCGC00167526-02] | -95.3053% |
| CC[C@H](C)[C@H]1O[C@]2(C=C[C@@H]1C)C[C@@H]1C[C@@H](C/C=C(\C)[C@@H](O[C@H]3C[C@H](OC)[C@@H](O[C@H]4C[C@H](OC)[C@@H](O)[C@H](C)O4)[C@H](C)O3)[C@@H](C)/C=C/C=C3\CO[C@@H]4[C@H](O)C(C)=C[C@@H](C(=O)O1)[C@]34O)O2 [NCGC00168290-05] | -26.1435% |
| CC(C)N(CCC(C(N)=O)(c1ccccc1)c1ccccn1)C(C)C (stereo not drawn) [NCGC00015358-18] | -7.9771% |
| N=C(N)c1ccc(OCCCCCOc2ccc(C(=N)N)cc2)cc1 [NCGC00179034-07] | -64.313% |
| O=c1c(O)c(-c2ccc(O)c(O)c2)oc2cc(O)cc(O)c12 [NCGC00015870-27] | -35.5344% |
| CN(C/C=C/c1ccccc1)Cc1cccc2ccccc12.Cl [NCGC00179332-03] | -15.3589% |
